Experimental data reported in patent US10766879B2, “Pyrimidine derivatives as kinase inhibitors and their therapeutical applications” (NantBioScience, Inc., priority 2015, dated 2020).

What was measured:
c-Src kinase = target: T1, c-Src kinase (Homo sapiens, UniProt P12931); assay: KinaseProfiler kinase inhibition assay, c-Src; type: biochemical; conditions: 1 μM compound; read-out: % Inhibition @1 μM cSrc
T1 construct: purchased Millipore (KinaseProfiler Service)

Tie2 = target: T2, Tie2 (Homo sapiens, UniProt Q02763); assay: KinaseProfiler kinase inhibition assay, Tie2; type: biochemical; conditions: 1 μM compound
T2 construct: purchased Millipore (KinaseProfiler Service)
T2 sequence (Q02763 23-1124): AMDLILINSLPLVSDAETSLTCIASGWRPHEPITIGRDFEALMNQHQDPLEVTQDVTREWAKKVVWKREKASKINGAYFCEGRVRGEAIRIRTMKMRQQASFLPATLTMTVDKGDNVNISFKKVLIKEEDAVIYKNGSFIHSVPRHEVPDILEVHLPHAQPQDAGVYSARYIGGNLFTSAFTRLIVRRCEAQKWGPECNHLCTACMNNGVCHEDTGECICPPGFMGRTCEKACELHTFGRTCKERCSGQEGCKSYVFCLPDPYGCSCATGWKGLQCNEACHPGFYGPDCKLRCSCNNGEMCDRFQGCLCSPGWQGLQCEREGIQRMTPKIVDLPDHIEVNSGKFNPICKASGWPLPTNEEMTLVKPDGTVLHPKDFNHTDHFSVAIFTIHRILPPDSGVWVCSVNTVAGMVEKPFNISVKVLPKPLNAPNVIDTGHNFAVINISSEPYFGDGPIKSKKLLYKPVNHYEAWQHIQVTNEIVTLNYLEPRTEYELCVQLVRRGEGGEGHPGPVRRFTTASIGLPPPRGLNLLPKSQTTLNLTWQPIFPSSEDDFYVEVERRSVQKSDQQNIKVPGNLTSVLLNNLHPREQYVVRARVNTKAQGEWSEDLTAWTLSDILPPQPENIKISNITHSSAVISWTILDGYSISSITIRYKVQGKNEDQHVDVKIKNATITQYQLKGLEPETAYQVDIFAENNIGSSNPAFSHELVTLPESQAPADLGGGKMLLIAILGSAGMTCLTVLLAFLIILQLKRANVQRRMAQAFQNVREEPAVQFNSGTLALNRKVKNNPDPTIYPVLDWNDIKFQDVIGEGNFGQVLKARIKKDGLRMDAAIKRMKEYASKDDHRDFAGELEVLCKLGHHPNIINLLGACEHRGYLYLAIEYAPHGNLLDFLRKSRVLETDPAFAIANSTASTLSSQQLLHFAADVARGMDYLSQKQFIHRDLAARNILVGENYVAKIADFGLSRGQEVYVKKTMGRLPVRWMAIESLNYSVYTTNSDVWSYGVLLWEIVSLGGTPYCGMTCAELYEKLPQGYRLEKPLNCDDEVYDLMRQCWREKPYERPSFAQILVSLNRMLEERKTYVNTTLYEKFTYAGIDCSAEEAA

Ret kinase = target: T3, Ret kinase (Homo sapiens, UniProt P07949); assay: KinaseProfiler kinase inhibition assay, Ret; type: biochemical; conditions: 1 μM compound
T3 construct: purchased Millipore (KinaseProfiler Service)
T3 sequence (P07949 29-1114): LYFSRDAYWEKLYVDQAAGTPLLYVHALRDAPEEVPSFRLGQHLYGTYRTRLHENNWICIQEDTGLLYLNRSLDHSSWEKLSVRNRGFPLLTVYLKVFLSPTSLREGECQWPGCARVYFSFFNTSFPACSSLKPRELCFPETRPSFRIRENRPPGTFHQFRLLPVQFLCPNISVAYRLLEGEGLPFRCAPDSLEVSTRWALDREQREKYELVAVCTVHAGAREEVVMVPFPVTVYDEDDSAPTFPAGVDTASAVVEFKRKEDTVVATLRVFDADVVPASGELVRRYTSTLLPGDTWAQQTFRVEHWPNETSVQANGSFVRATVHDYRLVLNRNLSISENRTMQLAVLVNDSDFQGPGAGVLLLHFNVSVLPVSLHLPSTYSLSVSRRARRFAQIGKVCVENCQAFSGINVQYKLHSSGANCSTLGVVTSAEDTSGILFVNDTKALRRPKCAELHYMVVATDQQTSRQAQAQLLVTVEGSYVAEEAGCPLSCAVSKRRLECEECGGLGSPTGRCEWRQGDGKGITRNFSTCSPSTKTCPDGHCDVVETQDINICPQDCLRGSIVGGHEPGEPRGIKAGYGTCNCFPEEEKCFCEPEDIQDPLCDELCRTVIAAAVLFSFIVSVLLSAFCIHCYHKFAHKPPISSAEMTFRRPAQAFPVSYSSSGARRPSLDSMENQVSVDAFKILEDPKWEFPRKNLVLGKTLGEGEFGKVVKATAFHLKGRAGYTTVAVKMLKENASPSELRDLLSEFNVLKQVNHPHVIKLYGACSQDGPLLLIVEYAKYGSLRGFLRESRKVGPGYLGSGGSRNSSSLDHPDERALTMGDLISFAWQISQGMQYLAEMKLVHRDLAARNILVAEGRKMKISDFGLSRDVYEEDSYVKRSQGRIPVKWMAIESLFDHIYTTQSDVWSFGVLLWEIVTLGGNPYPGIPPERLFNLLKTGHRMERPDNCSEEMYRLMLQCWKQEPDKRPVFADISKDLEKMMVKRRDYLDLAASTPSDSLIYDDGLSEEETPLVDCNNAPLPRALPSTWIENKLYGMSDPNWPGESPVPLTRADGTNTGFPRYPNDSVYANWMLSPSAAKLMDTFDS

KDR kinase = target: T4, KDR kinase (Homo sapiens, UniProt P35968); assay: KinaseProfiler kinase inhibition assay, KDR; type: biochemical; conditions: 1 μM compound
T4 construct: purchased Millipore (KinaseProfiler Service)

FGFR1 kinase = target: T5, FGFR1 kinase (Homo sapiens, UniProt P11362); assay: KinaseProfiler kinase inhibition assay, FGFR1; type: biochemical; conditions: 1 μM compound
T5 construct: purchased Millipore (KinaseProfiler Service)
T5 sequence (P11362 22-822): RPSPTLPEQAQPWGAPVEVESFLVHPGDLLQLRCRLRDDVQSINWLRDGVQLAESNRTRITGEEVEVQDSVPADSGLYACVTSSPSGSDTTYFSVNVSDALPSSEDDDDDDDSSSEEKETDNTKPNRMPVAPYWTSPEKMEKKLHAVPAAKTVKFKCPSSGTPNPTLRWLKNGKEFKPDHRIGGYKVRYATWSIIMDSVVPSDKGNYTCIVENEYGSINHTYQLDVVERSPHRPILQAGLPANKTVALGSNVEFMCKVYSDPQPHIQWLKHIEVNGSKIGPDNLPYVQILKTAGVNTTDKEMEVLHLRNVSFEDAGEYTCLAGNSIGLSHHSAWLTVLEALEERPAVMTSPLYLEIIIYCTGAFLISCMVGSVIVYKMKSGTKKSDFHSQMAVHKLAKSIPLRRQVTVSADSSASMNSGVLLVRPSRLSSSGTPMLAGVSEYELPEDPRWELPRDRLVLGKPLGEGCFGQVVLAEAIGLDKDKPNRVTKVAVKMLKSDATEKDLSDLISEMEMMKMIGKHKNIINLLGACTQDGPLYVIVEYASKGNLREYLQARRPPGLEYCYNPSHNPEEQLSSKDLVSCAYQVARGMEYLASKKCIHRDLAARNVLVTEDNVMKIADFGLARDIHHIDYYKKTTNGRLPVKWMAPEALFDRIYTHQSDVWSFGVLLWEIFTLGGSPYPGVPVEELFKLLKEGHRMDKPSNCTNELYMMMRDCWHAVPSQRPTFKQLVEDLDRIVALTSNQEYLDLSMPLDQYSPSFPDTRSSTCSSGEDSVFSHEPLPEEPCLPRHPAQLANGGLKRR

Alk kinase = target: T6, Alk kinase (Homo sapiens, UniProt Q9UM73); assay: KinaseProfiler kinase inhibition assay, Alk; type: biochemical; conditions: 1 μM compound
T6 construct: purchased Millipore (KinaseProfiler Service)
T6 sequence (Q9UM73 19-1620): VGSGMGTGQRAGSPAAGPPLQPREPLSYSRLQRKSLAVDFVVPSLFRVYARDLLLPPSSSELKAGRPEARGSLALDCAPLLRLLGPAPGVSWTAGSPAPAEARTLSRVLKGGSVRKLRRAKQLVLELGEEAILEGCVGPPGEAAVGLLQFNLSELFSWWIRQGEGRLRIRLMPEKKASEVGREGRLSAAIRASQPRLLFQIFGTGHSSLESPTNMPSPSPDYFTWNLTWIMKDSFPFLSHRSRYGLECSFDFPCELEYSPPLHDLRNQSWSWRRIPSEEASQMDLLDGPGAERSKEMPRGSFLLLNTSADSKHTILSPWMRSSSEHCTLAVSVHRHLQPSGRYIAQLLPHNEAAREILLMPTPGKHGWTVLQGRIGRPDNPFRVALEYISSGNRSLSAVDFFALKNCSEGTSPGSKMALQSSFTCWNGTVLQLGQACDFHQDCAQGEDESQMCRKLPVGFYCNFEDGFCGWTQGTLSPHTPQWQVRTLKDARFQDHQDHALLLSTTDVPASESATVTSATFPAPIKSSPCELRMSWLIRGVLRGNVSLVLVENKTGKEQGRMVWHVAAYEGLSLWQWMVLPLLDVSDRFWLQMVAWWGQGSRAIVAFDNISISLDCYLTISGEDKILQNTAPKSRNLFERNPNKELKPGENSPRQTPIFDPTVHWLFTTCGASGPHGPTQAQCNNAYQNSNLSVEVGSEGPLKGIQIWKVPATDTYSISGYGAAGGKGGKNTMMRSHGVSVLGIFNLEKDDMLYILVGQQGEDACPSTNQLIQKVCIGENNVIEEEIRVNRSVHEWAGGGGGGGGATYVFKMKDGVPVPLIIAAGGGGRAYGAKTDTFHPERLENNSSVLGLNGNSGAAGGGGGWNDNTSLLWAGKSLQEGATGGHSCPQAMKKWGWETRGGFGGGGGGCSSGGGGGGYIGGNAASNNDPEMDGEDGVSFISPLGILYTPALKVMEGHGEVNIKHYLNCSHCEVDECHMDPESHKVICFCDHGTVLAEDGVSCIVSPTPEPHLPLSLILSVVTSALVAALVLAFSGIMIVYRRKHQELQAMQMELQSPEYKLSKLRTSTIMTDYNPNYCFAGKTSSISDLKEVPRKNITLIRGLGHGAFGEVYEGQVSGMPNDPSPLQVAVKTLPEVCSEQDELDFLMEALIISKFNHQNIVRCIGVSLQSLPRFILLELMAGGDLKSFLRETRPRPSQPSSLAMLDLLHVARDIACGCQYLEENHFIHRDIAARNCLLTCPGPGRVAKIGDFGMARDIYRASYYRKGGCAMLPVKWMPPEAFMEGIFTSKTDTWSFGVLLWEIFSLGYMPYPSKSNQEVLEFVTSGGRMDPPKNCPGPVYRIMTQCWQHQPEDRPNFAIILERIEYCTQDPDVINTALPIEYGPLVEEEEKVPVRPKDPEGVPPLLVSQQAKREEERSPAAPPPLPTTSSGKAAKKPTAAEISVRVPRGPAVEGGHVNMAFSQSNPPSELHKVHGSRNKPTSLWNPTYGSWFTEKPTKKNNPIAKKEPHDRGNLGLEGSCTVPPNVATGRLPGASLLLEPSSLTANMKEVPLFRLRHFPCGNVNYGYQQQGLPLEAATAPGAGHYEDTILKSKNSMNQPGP

KG1a = assay: CellTiterblue viability, 72 hr, KG1a; type: cell-based; conditions: Homo sapiens, KG-1a, KG1a cells
Experimental: (§1) A number of studies were performed to analyze the consequences of tyrosine kinase inhibition in cell lines. To do this, 1000 cells are seeded in 27 μl/well in 384-well microplates, which are then placed in a humidified CO2 incubator at 37° C. overnight. The next day, 3 μl/well of 10× concentrated drug is added and the plates are returned to the incubator for 72 hr. After 72 hr incubation, plates are removed and […] CellTiterblue (Promega) viability reagent is added. Plates are returned to the incubator for 3 hr, after which it is fluorescence measurements are read on the Victor X3 plate reader (Perkin Elmer). Data are analyzed using Excel (Microsoft), and GI50 values are determined using Prism (Graphpad).

Kato III = assay: CellTiterblue viability, 72 hr, Kato III; type: cell-based; conditions: Homo sapiens, Kato III cells
Experimental: as §1

RT112 = assay: CellTiterblue viability, 72 hr, RT112; type: cell-based; conditions: Homo sapiens, RT-112, RT112 cells
Experimental: as §1

Abl kinase = target: T7, Abl kinase (Homo sapiens, UniProt P00519); assay: KinaseProfiler kinase inhibition assay, Abl; type: biochemical; conditions: 1 μM compound
T7 construct: purchased Millipore (KinaseProfiler Service)

AN3_CA = assay: CellTiterblue viability, 72 hr, AN3_CA; type: cell-based; conditions: Homo sapiens, AN3-CA, AN3_CA cells
Experimental: as §1

phospho-FGFR2 = target: T8, phospho-FGFR2 (Homo sapiens, UniProt P21802); assay: phospho-FGFR ELISA on Kato III cells; type: cell-based; conditions: read-out: EC50 (nM) P-FGFR2, Kato III cells
T8 construct: endogenous in cells; host or cells: Kato III cells
Experimental: For the phospho-FGFR, the following assay Protocol was used. 25,000 cells are seeded in 90 μl/well in 96-well microplates, which are then placed in a humidified CO2 incubator at 37° C. overnight. 96-well ELISA plates (Mesoscale Discovery) are coated with capture antibody (R&D Systems Duo-Set) at 4 μg/ml, 30 μl/well. The next day, 10 μl/well of 10× concentrated drug is added and the plates are returned to the incubator for […]. ELISA plates are washed using an automated plate washer (BioTek Instruments). After 30 min, cells are inverted and gently tapped to remove excess medium, and immediately placed on ice. 30 μl mPer cell lysis reagent (Thermo Scientific) with protease and phosphatase inhibitors is added/well. After 15 min on ice, lysates are mixed and 30 μl transferred to the ELISA plate. Plates are incubated for 2 hr, washed, and 30 μl/well detection antibody is added. After 1 hr, plates are washed and 30 μl “SulfoTag” (MesoScale Discovery) detection reagent is added. After 1 hr, plates are washed and 150 μl/well read solution is added. Electrochemiluminescence is determined on the Mesoscale Discovery Sector Imager 2000. Data are analyzed using Excel (Microsoft), and EC50 values are determined using Prism (Graphpad).

MDA-MB134 = assay: CellTiterblue viability, 72 hr, MDA-MB134; type: cell-based; conditions: MDA-MB134 cells
Experimental: as §1

T1 sequence (P12931 whole entry): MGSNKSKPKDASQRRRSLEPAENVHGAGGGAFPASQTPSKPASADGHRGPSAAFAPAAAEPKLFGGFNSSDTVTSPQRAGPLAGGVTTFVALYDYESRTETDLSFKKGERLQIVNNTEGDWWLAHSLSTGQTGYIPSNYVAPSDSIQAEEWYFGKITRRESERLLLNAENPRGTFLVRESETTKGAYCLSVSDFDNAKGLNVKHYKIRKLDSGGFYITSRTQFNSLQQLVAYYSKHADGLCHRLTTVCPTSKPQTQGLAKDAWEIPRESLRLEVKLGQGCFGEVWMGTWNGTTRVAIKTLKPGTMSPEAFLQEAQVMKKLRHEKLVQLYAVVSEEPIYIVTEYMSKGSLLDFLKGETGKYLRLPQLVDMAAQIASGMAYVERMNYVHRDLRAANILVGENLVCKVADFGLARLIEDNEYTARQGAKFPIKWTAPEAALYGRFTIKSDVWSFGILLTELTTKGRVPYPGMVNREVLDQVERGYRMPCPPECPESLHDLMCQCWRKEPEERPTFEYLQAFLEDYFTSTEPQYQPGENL

| Structure (SMILES) | inhibition at 1 µM (c-Src kinase) [%] | inhibition at 1 µM (Tie2) [%] | inhibition at 1 µM (Ret kinase) [%] | inhibition at 1 µM (KDR kinase) [%] | inhibition at 1 µM (FGFR1 kinase) [%] | inhibition at 1 µM (Alk kinase) [%] | GI50 (KG1a) [nM] | GI50 (Kato III) [nM] | GI50 (RT112) [nM] | inhibition at 1 µM (Abl kinase) [%] | GI50 (AN3_CA) [nM] | EC50 (phospho-FGFR2) [nM] | GI50 (MDA-MB134) [nM] |
| --- | --- | --- | --- | --- | --- | --- | --- | --- | --- | --- | --- | --- | --- |
| Cc1cc2c(F)c(Oc3ncnc(Nc4ccc(N5CCN(C)CC5)cn4)c3Cl)ccc2[nH]1 [Compound 34, 5-chloro-6-((4-fluoro-2-methyl-1H-indol-5-yl)oxy)-N-(5-(4-methylpiperazin-1-yl)pyridin-2-yl)pyrimidin-4-amine] | 9 | 18 | 25 | 96 | 98 | 15 | > 100 | 229 | > 100 | 19 | > 500 | > 100 | – |
| COc1c(Nc2ccc(N3CCN(C)CC3)cn2)ncnc1Oc1ccc2[nH]c(C)cc2c1F [Compound 44] | -11 | 11 | -12 | -1 | 16 | -18 | > 500 | > 500 | > 500 | -6 | > 500 | – | > 500 |
| Cc1cc2c(F)c(Oc3ncnc(Nc4ccc(N5CCN(C)CC5)cc4)c3N)ccc2[nH]1 [Compound 46] | 12 | 14 | -43 | 5 | 54 | -34 | > 500 | > 500 | > 500 | -13 | > 500 | – | 254 |
| Cc1cc2c(F)c(Oc3ncnc(Nc4ccc(N5CCN(C)CC5)cn4)c3N)ccc2[nH]1 [Compound 47] | -6 | 11 | -30 | 1 | 34 | -31 | > 500 | > 500 | > 500 | -6 | > 500 | – | > 500 |
| Cc1cc2c(F)c(Oc3cc(Nc4ccc(N5CCNCC5)cc4)ncn3)cc(F)c2[nH]1 [Compound 51] | 70 | 82 | 74 | 97 | 101 | 54 | > 100 | 169 | > 100 | 73 | 406 | 38 | – |
| Cc1cc2c(F)c(Oc3ncnc(Nc4ccc(N5CCN(C)CC5)cc4)c3C#N)ccc2[nH]1 [Compound 54] | 8 | 21 | -30 | 97 | 101 | -30 | 4 | 12 | 103 | 3 | 214 | – | 20 |
| CCN1CCN(c2ccc(Nc3ncnc(Oc4ccc5[nH]c(C)cc5c4F)c3C#N)nc2)CC1 [Compound 55] | 10 | 31 | -48 | 91 | 99 | -23 | 7 | 319 | > 500 | 2 | 98 | – | 78 |
| Cc1cc2c(F)c(Oc3ncnc(Nc4ccc(N5CCNCC5)cc4)c3C#N)ccc2[nH]1 [Compound 57] | 12 | 30 | -26 | 94 | 99 | -40 | 4 | 51 | 33 | -6 | > 500 | – | 8 |
| CCN1CCN(c2ccc(Nc3ncnc(Oc4cc(F)c5[nH]c(C)cc5c4F)c3C#N)cc2)CC1 [Compound 60] | 3 | 24 | -42 | 93 | 100 | 3 | 5 | 26 | 47 | -7 | > 500 | – | 18 |
| CCN1CCN(c2ccc(Nc3ncnc(Oc4cc(F)c5[nH]c(C)cc5c4F)c3C#N)nc2)CC1 [Compound 61] | -9 | 23 | -13 | 51 | 100 | -41 | 4 | 77 | 11 | 3 | > 500 | – | 28 |
| CCN1CCN(c2ccc(Nc3ncnc(Oc4ccc5c(cc(C)n5C)c4F)c3F)cc2)CC1 [Compound 63] | 1 | 13 | -41 | 10 | 91 | -3 | > 500 | > 500 | > 500 | 3 | > 500 | – | 282 |
| CCN1CCN(c2ccc(Nc3ncnc(Oc4ccc5c(cc(C)n5C)c4F)c3C#N)cc2)CC1 [Compound 65] | 13 | 37 | -19 | 8 | 98 | -28 | > 500 | > 500 | > 500 | -1 | > 500 | – | 461 |
| CCN1CCN(c2ccc(Nc3ncnc(Oc4ccc5[nH]c(C)cc5c4F)c3C(N)=O)cc2)CC1 [Compound 68] | 85 | 94 | 97 | 96 | 100 | 46 | 32 | 23 | 11 | 67 | 79 | – | 111 |
| CCN1CCN(c2ccc(Nc3cc(Oc4ccc5[nH]c(C)cc5c4F)ncn3)cc2)CC1 [Example 3] | 46 | 61 | 75 | 97 | 102 | -2 | > 100 | – | > 100 | 47 | > 500 | 93 | – |
| Cc1cc2c(F)c(Oc3cc(Nc4cc(C5CC5)[nH]n4)ncn3)ccc2[nH]1 [Example 16] | 54 | 75 | 79 | 90 | 92 | 2 | > 100 | – | > 100 | 64 | > 500 | > 100 | – |
| C/C=C/c1cc(Nc2cc(Oc3ccc4[nH]c(C)cc4c3F)ncn2)n[nH]1 [Example 17] | 21 | 37 | 73 | 90 | 95 | 2 | > 100 | – | > 100 | 42 | > 500 | > 100 | – |
| Cc1cc2c(F)c(Oc3cc(Nc4cc(-c5ccco5)[nH]n4)ncn3)ccc2[nH]1 [Example 20] | 24 | 47 | 78 | 88 | 92 | 3 | > 100 | – | > 100 | 36 | > 500 | > 100 | – |
